Test results from the supplement of paper PMC10627819.

Columns and labels:
Test in all cases: fitness (endpoint OD595 vs no drug) (fraction); higher = more growth
[1] = system: B. subtilis 168
Procedure, shortened: (§1)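 Bacterial fitness was scored as optical density at the stationary-phase transition relative to the robust mean of no-drug control wells. Scores are capped at 1. The growth data were OD595 readings every 30 min for 14 h at 37 °C, background-subtracted against the first reading, from 384-well plates inoculated at OD595 0.01 in TSB, LB Lennox or CY.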

[2] = system: S. aureus DSM 20231
Procedure, shortened: as §1

[3] = system: S. pneumoniae D39V
Procedure, shortened: as §1
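Also: OD595 on entry to stationary phase over no-drug wells; at most 1.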

CN(C)[C@@H]1C(O)=C(C(N)=O)C(=O)[C@@]2(O)C(O)=C3C(=O)c4c(O)ccc(Cl)c4[C@@](C)(O)[C@H]3C[C@@H]12 [Chlortetracycline] + Cc1ncc([N+](=O)[O-])n1CCO [Metronidazole]
Settings	fitness
[1], first compound 0.0475 µg/mL, partner 0.625 µg/mL	0.978
[1], first compound 0.0475 µg/mL, partner 1.25 µg/mL	0.925
[1], first compound 0.0475 µg/mL, partner 2.5 µg/mL	0.959
[1], first compound 0.095 µg/mL, partner 0.625 µg/mL	0.888
[1], first compound 0.095 µg/mL, partner 1.25 µg/mL	0.789
[1], first compound 0.095 µg/mL, partner 2.5 µg/mL	0.822
[1], first compound 0.19 µg/mL, partner 0.625 µg/mL	0.619
[1], first compound 0.19 µg/mL, partner 1.25 µg/mL	0.586
[1], first compound 0.19 µg/mL, partner 2.5 µg/mL	0.536
[2], first compound 0.048 µg/mL, partner 0.625 µg/mL	0.196
[2], first compound 0.048 µg/mL, partner 1.25 µg/mL	0.144
[2], first compound 0.048 µg/mL, partner 2.5 µg/mL	0.124
[3], first compound 0.012 µg/mL, partner 1.073 µg/mL	0.958
[3], first compound 0.012 µg/mL, partner 4.29 µg/mL	0.904
[3], first compound 0.024 µg/mL, partner 1.073 µg/mL	0.972
[3], first compound 0.024 µg/mL, partner 4.29 µg/mL	0.916
[3], first compound 0.048 µg/mL, partner 1.073 µg/mL	0.855
[3], first compound 0.048 µg/mL, partner 2.145 µg/mL	0.873
[3], first compound 0.048 µg/mL, partner 4.29 µg/mL	0.872
[3], first compound 0.375 µg/mL, partner 1.25 µg/mL	0.0344
[3], first compound 0.375 µg/mL, partner 2.5 µg/mL	0.0383
[3], first compound 0.375 µg/mL, partner 5 µg/mL	0.0668
[3], first compound 0.75 µg/mL, partner 1.25 µg/mL	0.0404
[3], first compound 0.75 µg/mL, partner 2.5 µg/mL	0.045
[3], first compound 0.75 µg/mL, partner 5 µg/mL	0.0953
[3], first compound 1.5 µg/mL, partner 1.25 µg/mL	0.0574
[3], first compound 1.5 µg/mL, partner 2.5 µg/mL	0.0668
[3], first compound 1.5 µg/mL, partner 5 µg/mL	0.0748

[2], first compound 0.006 µg/mL, one replicate
Settings	fitness
partner 0.625 µg/mL	0.807
partner 1.25 µg/mL	0.8
partner 2.5 µg/mL	0.833

CN(C)[C@@H]1C(O)=C(C(N)=O)C(=O)[C@@]2(O)C(O)=C3C(=O)c4c(O)ccc(Cl)c4[C@@](C)(O)[C@H]3C[C@@H]12 [Chlortetracycline] + COc1ccc(C[C@H](N)C(=O)N[C@H]2[C@@H](O)[C@H](n3cnc4c(N(C)C)ncnc43)O[C@@H]2CO)cc1 [Puromycin]
fitness
Settings	partner 0.39 µg/mL	partner 0.78 µg/mL	partner 1 µg/mL	partner 1.56 µg/mL	partner 2 µg/mL	partner 4 µg/mL
[1], first compound 0.0475 µg/mL	0.858	0.901	–	0.904	–	–
[1], first compound 0.095 µg/mL	0.741	0.728	–	0.671	–	–
[1], first compound 0.19 µg/mL	0.512	0.459	–	0.351	–	–
[2], first compound 0.012 µg/mL	0.567	0.589	–	0.497	–	–
[2], first compound 0.024 µg/mL	0.2	0.217	–	0.137	–	–
[2], first compound 0.048 µg/mL	0.053	0.171	–	0.0612	–	–
[3], first compound 0.375 µg/mL	–	–	0.0657	–	0.0757	0.0703
[3], first compound 0.75 µg/mL	–	–	0.0562	–	0.0783	0.0776
[3], first compound 1.5 µg/mL	–	–	0.0348	–	0.0557	0.0492

fitness, one replicate
Settings	first compound 0.006 µg/mL	first compound 0.012 µg/mL	first compound 0.024 µg/mL	first compound 0.048 µg/mL
[2], partner 0.39 µg/mL	0.853	–	–	–
[2], partner 0.78 µg/mL	0.847	–	–	–
[2], partner 1.56 µg/mL	0.731	–	–	–
[2], partner 3.12 µg/mL	–	0.325	0.0559	0.0249
[2], partner 6.24 µg/mL	–	0.0809	0.0524	0.0264
[3], partner 1 µg/mL	–	0.822	0.875	0.647
[3], partner 2 µg/mL	–	0.793	0.773	0.453
[3], partner 4 µg/mL	–	0.619	0.606	0.171

CN(C)[C@@H]1C(O)=C(C(N)=O)C(=O)[C@@]2(O)C(O)=C3C(=O)c4c(O)ccc(Cl)c4[C@@](C)(O)[C@H]3C[C@@H]12 [Chlortetracycline] + CCN(CC)CCOC(=O)c1ccc(N)cc1 [Procaine]
fitness
Settings	partner 85.5 µg/mL	partner 171 µg/mL	partner 342 µg/mL
[1], first compound 0.0475 µg/mL	0.908	0.855	0.878
[1], first compound 0.095 µg/mL	0.695	0.699	0.703
[1], first compound 0.19 µg/mL	–	0.528	–
[2], first compound 0.012 µg/mL	0.568	0.615	0.613
[2], first compound 0.024 µg/mL	0.23	0.2	0.2
[2], first compound 0.048 µg/mL	0.0791	0.058	0.0382
[3], first compound 0.375 µg/mL	0.0458	0.0259	0.0318
[3], first compound 0.75 µg/mL	0.055	0.0347	0.0395
[3], first compound 1.5 µg/mL	0.0277	0.0174	0.0396

fitness, one replicate
Settings	partner 85.5 µg/mL	partner 171 µg/mL	partner 342 µg/mL
[2], first compound 0.006 µg/mL	0.713	0.8	0.737
[3], first compound 0.012 µg/mL	0.95	0.897	0.929
[3], first compound 0.024 µg/mL	0.921	0.835	0.86
[3], first compound 0.048 µg/mL	0.835	0.726	0.736

CN(C)[C@@H]1C(O)=C(C(N)=O)C(=O)[C@@]2(O)C(O)=C3C(=O)c4c(O)ccc(Cl)c4[C@@](C)(O)[C@H]3C[C@@H]12 [Chlortetracycline] + Cc1onc(-c2ccccc2)c1C(=O)N[C@@H]1C(=O)N2[C@@H]1SC(C)(C)[C@@H]2C(=O)O [Oxacillin]
Settings	fitness
[1], first compound 0.0475 µg/mL, partner 0.002 µg/mL	0.868
[1], first compound 0.0475 µg/mL, partner 0.004 µg/mL	0.829
[1], first compound 0.0475 µg/mL, partner 0.008 µg/mL	0.832
[1], first compound 0.095 µg/mL, partner 0.002 µg/mL	0.802
[1], first compound 0.095 µg/mL, partner 0.004 µg/mL	0.764
[1], first compound 0.095 µg/mL, partner 0.008 µg/mL	0.726
[1], first compound 0.19 µg/mL, partner 0.002 µg/mL	0.488
[1], first compound 0.19 µg/mL, partner 0.004 µg/mL	0.401
[1], first compound 0.19 µg/mL, partner 0.008 µg/mL	0.416
[2], first compound 0.012 µg/mL, partner 0.0156 µg/mL	0.452
[2], first compound 0.012 µg/mL, partner 0.0312 µg/mL	0.379
[2], first compound 0.012 µg/mL, partner 0.0625 µg/mL	0.341
[2], first compound 0.024 µg/mL, partner 0.0156 µg/mL	0.204
[2], first compound 0.024 µg/mL, partner 0.0312 µg/mL	0.173
[2], first compound 0.024 µg/mL, partner 0.0625 µg/mL	0.165
[2], first compound 0.048 µg/mL, partner 0.0156 µg/mL	0.0968
[2], first compound 0.048 µg/mL, partner 0.0312 µg/mL	0.0599
[2], first compound 0.048 µg/mL, partner 0.0625 µg/mL	0.0746
[3], first compound 0.012 µg/mL, partner 0.01 µg/mL	0.921
[3], first compound 0.012 µg/mL, partner 0.02 µg/mL	0.878
[3], first compound 0.012 µg/mL, partner 0.04 µg/mL	0.6
[3], first compound 0.024 µg/mL, partner 0.01 µg/mL	0.876
[3], first compound 0.024 µg/mL, partner 0.02 µg/mL	0.853
[3], first compound 0.024 µg/mL, partner 0.04 µg/mL	0.681
[3], first compound 0.048 µg/mL, partner 0.01 µg/mL	0.821
[3], first compound 0.048 µg/mL, partner 0.02 µg/mL	0.739
[3], first compound 0.048 µg/mL, partner 0.04 µg/mL	0.544
[3], first compound 0.375 µg/mL, partner 0.005 µg/mL	0.0823
[3], first compound 0.375 µg/mL, partner 0.01 µg/mL	0.0713
[3], first compound 0.375 µg/mL, partner 0.02 µg/mL	0.0526
[3], first compound 0.75 µg/mL, partner 0.005 µg/mL	0.104
[3], first compound 0.75 µg/mL, partner 0.01 µg/mL	0.0551
[3], first compound 0.75 µg/mL, partner 0.02 µg/mL	0.0755
[3], first compound 1.5 µg/mL, partner 0.005 µg/mL	0.0919
[3], first compound 1.5 µg/mL, partner 0.01 µg/mL	0.0809
[3], first compound 1.5 µg/mL, partner 0.02 µg/mL	0.0469

fitness, one replicate
Settings	partner 0.0078 µg/mL	partner 0.0155 µg/mL	partner 0.0156 µg/mL	partner 0.031 µg/mL	partner 0.0312 µg/mL	partner 0.0625 µg/mL	partner 0.075 µg/mL	partner 0.15 µg/mL	partner 0.3 µg/mL
[1], first compound 0.0475 µg/mL	0.924	0.934	–	0.931	–	–	0.66	0.0283	0.0599
[1], first compound 0.095 µg/mL	0.926	0.814	–	0.674	–	–	0.581	0.0215	0.0316
[1], first compound 0.19 µg/mL	0.62	0.621	–	0.575	–	–	0.377	0.0401	0.0338
[2], first compound 0.006 µg/mL	–	–	0.7	–	0.531	0.435	–	–	–
